Where a name gives a salt, the structure may show the parent alone.
Test system: Proteus
Test: Proteus background growth, plates inoculated with mixed culture of Proteus and Shigella
Type: cell-based
Details: general statement
Text: FIG. 6 is a photograph of two plates. The plate on the right is coated with the selective growth media N4 agar of the present invention. The plate on the left is coated with SS agar.
FIG. 7 presents a photograph of two agar coated plates. On the right is a plate coated with a prototype N4 formulation assessing the concentration of NIAPROOF®4 for the suppression of competing, background bacterial growth while allowing good growth of Shigella. The plate on the left is coated with XLD agar. Both plates were inoculated with a mixed culture of Proteus and Shigella organisms and allowed to grow overnight.

SMILES: CCCCC(CC)CCC(CC(C)C)OS(=O)(=O)O (stereo not shown) [NIAPROOF®4, 7-ethyl-2-methyl-4-undecanol hydrogen sulfate]
- Suppression of Proteus spp.: very potent reagent in suppressing Proteus spp.

Reference: patent publication US7842496B2, “Advanced selective plating media” (University of Maryland, priority 2006, dated 2010)
